Results as given in patent US11707557B2, “Compositions and devices incorporating water-insoluble therapeutic agents and methods of the use thereof” (COOK MEDICAL TECHNOLOGIES LLC, priority 2014, dated 2023).
Values after ≈ are worked out from the molar mass of the structure shown.

Legend:
[1] = physchem; assay type: physicochemical; conditions: for solubility: thermodynamic from solid
Protocol: Method: Solutions of finasteride and either EGCG or tannic acid at various weight percentages in ethanol were dried down under nitrogen. Water was added and the dried material suspended/dissolved. […] The pH of tannic acid solutions was brought up to 7 by the addition of NAOH.

[2] = Release of finasteride from PVA foam embolization particles and Embospheres; assay type: physicochemical
Protocol: Method: PVA foam embolization particles (Cook. Medical Bloomington Ind.) size 180-300 um. Vial of 220 mg split into two. 150 mg of EGCG with 10 mg of finasteride or 250 mg tannic acid with 1 mg of finasteride were dried as a common film from ethanol and solubilised in 1 ml of water and added to the 100 mg of PVA particles. Solutions were mixed for 30 minutes. At this time it was observed that all the EGCG or tannic acid color (pink or brown respectively) had disappeared from the solution and gone into the PVA which was now heavily colored. The solution was discarded and the PVA freeze dried. 10 mg of the EGCG formulation or 5 mg of the tannic acid formulation was added to 2 ml of PBS (pH 7.4) and the release of finasteride was measured over 2 weeks.
Embospheres: Syringe contents ((Embospheres 500-700 um Merit Medical S. Jordan Utah) were split into two and incubated in water solutions of finasteride (1 mg/ml in 35 mg of EGCG or tannic acid made up from dried films as above) for 30 minutes with shaking. At this time it was observed that all the EGCG or tannic acid color (pink or brown respectively) had disappeared from the solution and gone into the Embospheres which were no heavily colored. The solution was discarded. 20% of the resulting particles (still wet) were then placed in microcentrifuge tubes containing 2 ml of PBS and drug release was measured.

[3] = Release from PLGA microspheres +/- EGCG or tannic acid; assay type: physicochemical; conditions: for drug released: first 20 days
Protocol: Method: The method involved pipetting a solution of the polymer PLGA (usually 20% w/v) and drug (usually 5% w/w to polymer) and EGCG (e.g. 20% w/w/ to polymer) in dichlomethane (DCM) (5 ml) into 100 ml of 2.5% PVA solution in water stirring at 450 rpm. The suspension was left stirring for 2 hours and the microspheres washed 4 times in distilled water. The microspheres were then dried under vacuum for 2 days. Drug encapsulation was measured by dissolving a known weight of microspheres in 1 ml of dichloromethane followed by immediate dilution to 10 ml in 60:40 acetonitrile/water. The amount of drug or EGCG in the top and bottom phase of this solution was measured using HPLC methods (mobile phase 58:37:5 Acetonitrile:water:methanol. 1 ml per min flow on a c18 column with detection at 232 nm)
Tannic acid: An alternative method was used, termed a water-in oil-in water emulsion. […] This forms a primary emulsion of water droplets in the PLGA solution stabilized by Span. When this emulsion was pipetted into the PVA solution the microspheres formed well. […] The microspheres were a light brown in color indicative of tannic acid encapsulation.
Methods: In these studies, 10 mg of microspheres were suspended in 2 ml of phosphate buffered saline (pH 7.4 10 mM phosphate) in microcentrifuge tubes and tumbled at 8 rpm at 37° C. The tubes were then centrifuged at 12000×g and the supernatants collected for drug analysis by HPLC. 2 ml of fresh PBS was then placed on top of the microspheres which were returned to the 37° C. oven for continued incubation with tumbling.
At the end of the study the residual mass of polymer and drug was dissolved in DCM and drug extracted into 60:40 acetonitrile:water to measure residual drug. The amounts of residual drug were 89% for plga alone (at 31 days), 16% for EGCG and 8% for tannic acid (both at 51 days) as expressed as a % of the original loading.

[4] = 24 h
[5] = physchem
[6] = Liquid pharmaceutical excipients in gallate based pastes (solubility, viscosity score, pellet in water); assay type: physicochemical
Description: Various additional water/soluble/miscible liquids were explored (in addition to propylene glycol and polyethylene glycol) as excipients in gallate based pastes.
A viscosity score was established as follows: 1) Fluid—22 gauge needle; 2) Semi Viscous—18 gauge needle; 3) Viscous—16 gauge needle; 4) Waxy Pellet in water.

[7] = Drug concentrations obtained using EGCG at 50 mg per ml (microscopic check for particulates); assay type: physicochemical
Protocol: EGCG at 50 mg/ml and drug at approximately 250 micrograms per ml were dissolved in the listed solvent and dried down in a test tube under nitrogen. 1 ml of water was added, followed by vortexing. The solutions were examined for particulate matter under a microscope. If no particulates were present, the process was repeated with a higher drug amount. All the tested drugs remained in solution at the listed concentrations except for nystatin and hesperidin.

[8] = test system: Caco2 cells; experiment: Uptake and transfer of amphoterecin B into Caco2 cells; assay type: in vitro ADME, human; conditions: 3 hours, versus ambisome
Protocol: Caco2 cells were seeded onto 0.3 um transwell membranes and treated as in Example 9. A solution of amphoterecin B (250 ug per ml) in EGCG (25 mg per ml), tannic acid (25 mg/ml) in Hanks buffer pH 7.4. or ambisome was added to the top well for 3 hours. The bottom reservoir was collected and treated as in Example 8.

[9] = Drug release from injectable PG:gallate pastes (60:40) into PBS; assay type: physicochemical; conditions: 60:40 PG:EGCG or PG:tannic acid, 2% w/w drug, PBS pH 7.4, 37° C.
Protocol: Methods: 60:40% w/w PG:EGCG or PG:tannic acid was used in these studies. 588 mg of propylene glycol was weighed into a 20 mL glass vials and 392 of EGCG or tannic acid was added followed by vortexing to distribute and dissolve the gallates. The vials were warmed to 60° C. and vortexed until all the contents were in solution. At this time 20 mg of drug was added (2% w/w) and vortexed until in solution. The following drugs were used: paclitaxel, docetaxel, retinoic acid, amphotericin B, and curcumin. 100 mg of each paste was weighed into the base of a 15 mL glass test tube and 10 mL of phosphate buffered saline was added at pH 7.4 and the tubes were incubated at 37° C. for certain times. All 10 mL of the PBS release media was removed and 1 mL analyzed by HPLC for drug content. 10 mL of fresh PBS was then added to all tubes

[10] = aqueous with cosolvent or surfactant or cyclodextrin, thermodynamic from solid, drug concentration solubilised at maximum EGCG concentration

CC(C)(C)NC(=O)[C@H]1CC[C@H]2[C@@H]3CC[C@H]4NC(=O)C=C[C@]4(C)[C@H]3CC[C@]12C [finasteride]
stability of solutions ([1]; 24 h): stable over 24 hours | solubility ([1]; aqueous with cosolvent or surfactant or cyclodextrin): > 10000 µg/mL | solubility ([1]; pH 7, aqueous with cosolvent or surfactant or cyclodextrin): 8000 to 10000 µg/mL (≈ 21.5 to 26.8 mM) | solubility ([1]; water): 75 µg/mL (≈ 0.201 mM) | finasteride release ([2]; PVA incubated with tannic acid/finasteride solution, PBS, in 3 days): 100% | period of finasteride release ([2]; the other embolic particles (PVA with EGCG, Embospheres with EGCG or tannic acid)): over a two week period | drug released ([3]; PLGA microspheres with EGCG): approx 80% | drug released ([3]; PLGA microspheres with tannic acid): approx 80% | encapsulated drug released ([3]; PLGA microspheres without EGCG or tannic acid, after 32 days): 7% | residual drug as % of the original loading ([3]; PLGA with EGCG, at 51 days): 16% | residual drug as % of the original loading ([3]; PLGA with tannic acid, at 51 days): 8% | residual drug as % of the original loading ([3]; plga alone, at 31 days): 89% | stability of EGCG solutions of the drug [4]: stable for 24 hours | stability of tannic acid solutions of the drug [4]: stable for 24 hours | solubility [5, 10]: ~11000 µg/mL (≈ 29.5 mM) | solubility ([5]; pH 7, aqueous with cosolvent or surfactant or cyclodextrin, thermodynamic from solid, drug concentration solubilised at maximum tannic acid concentration): ~10000 µg/mL (≈ 26.8 mM)

Tween 80
Solubility of EGCG in excipient [6]: 15% | Solubility of tannic acid in excipient [6]: 15%

C[C@@H]1[C@H](O)[C@@H](C)/C=C/C=C/C=C/C=C/C=C/C=C/C=C/[C@H](O[C@@H]2O[C@H](C)[C@@H](O)[C@H](N)[C@@H]2O)C[C@@H]2O[C@](O)(C[C@@H](O)C[C@@H](O)[C@H](O)CC[C@@H](O)C[C@@H](O)CC(=O)O[C@H]1C)C[C@H](O)[C@H]2C(=O)O [amphotericin, amphotericin B]
Visual appearance [7]: clear | Drug Concentration ([7]; 1 ml of water): 125 microgram/ml | Particulates present ([7]; under a microscope): no | drug uptake and transport through the cells ([8]; 250 ug per ml in EGCG 25 mg per ml): much higher levels | drug uptake and transport through the cells ([8]; 250 ug per ml in tannic acid 25 mg/ml): much higher levels | drug release from PG:gallate paste [9]: relatively controlled release of the drug over 24 hours | stability of EGCG solutions of the drug [4]: stable for 24 hours | stability of tannic acid solutions of the drug [4]: stable for 24 hours | solubility [5, 10]: ~1800 µg/mL (≈ 1.95 mM) | solubility ([5]; aqueous with cosolvent or surfactant or cyclodextrin, thermodynamic from solid, drug concentration solubilised at maximum tannic acid concentration): ~5700 µg/mL (≈ 6.17 mM) | solubility ([5]; water, free solubility in water): 1 to 10 µg/mL (≈ 0.00108 to 0.0108 mM)
